In patent publication US10655163B2, “Methods, kits, and systems for multiplexed detection of target molecules and uses thereof” (THE GENERAL HOSPITAL CORPORATION, priority 2013, dated 2020):
“Also recorded” adds a separate entry of the source.

How the values were obtained:
[1] = tested on: four human cancer cell lines; assay: Proteomic profiling of olaparib and cisplatin treatments; type: cell-based; settings: FIGS. 15C-15D
Protocol: Proteomic profiling of olaparib and cisplatin treatments was performed for four human cancer cell lines, showing varying drug sensitivities as measured by viability assays (FIGS. 14A-14B and FIG. 15A).
Drug treatments of cell lines. To test the effect of drug treatment on protein expression levels, the cell lines were treated with a number of different chemotherapeutic or molecularly targeted drugs. […] DNA-damaging agents olaparib and cisplatin were applied to cells for 3 days. Changes in protein expression levels were compared to medium controls under identical conditions but without drug treatment.
Data analysis: calculating proteomic expression profiles. Protein expression profiles were extracted from raw data as follows. First, raw DNA counts were normalized via the mean of the internal NanoString positive controls, which account for hybridization efficiency. […]
Correlation between single-cell analysis and bulk measurement was calculated in GraphPad Prism. Spearman r values were calculated without assuming a normal, consistent distribution. Two-sided P values were calculated, where significant markers were identified by comparing two groups (for example, treated versus untreated) in Prism and performing pairwise t tests with an FDR of 0.2 for multiple test correction error. […] Class separability was measured by the Bhattacharya distance.

[2] = tested on: HT1080 fibrosarcoma cell lines; assay: Taxol dose response screen in HT1080 cells, ABCD protein marker profiling; type: cell-based, human; settings: different doses of taxol
Excerpt: Having established feasibility of inter- and intrapatient analyses in clinical samples, it was next sought to explore the feasibility of monitoring cancer treatment over time. To this end, it was first sought to determine if known pathway responses to different drug treatments could be discriminated. […]. […] Notable examples include pS6RP for targeted treatments, and pH2A.X, pATM/ATR (phospho-ataxia telangiectasia mutated/ATM- and Rad3-related) substrate, and cleaved PARP for DNA-damaging agents. Unexpected results, such as epigenetic histone modifications after treatment with a phosphatidylinositol 3-kinase inhibitor (PI3Ki) was also found (FIG. 15E). For additional in vitro validation of treatment, HT1080 fibrosarcoma cell lines were treated with four different doses of taxol.
To evaluate the assay's ability to measure even small marker changes, HT1080 human fibrosarcoma cells were treated with taxol at […] different doses. Marker changes at high doses were compared to marker changes quantified by an independent immunofluorescence screen (FIG. 16A). […] These in vitro studies established that the marker panel could indeed measure pathway changes in response to varying drug mechanisms; furthermore, these changes could be detected in a sensitive, dose-dependent manner.
Immunofluorescence. […]

SMILES | changes in DNA damage and apoptosis markers [1] | protein marker changes in response to taxol treatment [2]
N.N.[Cl][Pt][Cl] [cisplatin] | degradation of Bim and up-regulation of pERK | 
CC(=O)O[C@H]1C(=O)[C@@]2(C)[C@H]([C@H](OC(=O)c3ccccc3)[C@]3(O)C[C@H](OC(=O)[C@H](O)[C@@H](NC(=O)c4ccccc4)c4ccccc4)C(C)=C1C3(C)C)[C@]1(OC(C)=O)CO[C@@H]1C[C@@H]2O [taxol, paclitaxel] |  | dose-response changes; also recorded: dose-response curves
